US20160106773A1, “TREATMENT FOR DISEASES RELYING ON DISCOVERY THAT THIOREDOXIN MEDIATES NITRIC OXIDE RELEASE IN CELLS” (Duke University, priority 2008, published 2016)

Columns and labels:
Assay type in all cases: in vivo
[1] = test system: person with pancreatic cancer; test: Working Example X: patient with pancreatic cancer; settings: combination: gene therapy for TrxIP and 10 gms sodium ascorbate by infusion per day
Source text: A person with pancreatic cancer is given gene therapy for TrxIP and by infusion per day 10 gms of sodium ascorbate. The cancer regresses.

[2] = test system: person with large cell lymphoma disease; test: Working Example I: patient with large cell lymphoma given auranofin plus isosorbide dinitrate; settings: combination: 6 mg auranofin and 50 mg isosorbide dinitrate by mouth once a day for a month; patient not responding to treatment
Experimental: A person with large cell lymphoma disease who was not responding to treatment was given by mouth 6 mg auranofin and 50 mg isosorbide dinitrate once a day for a month. Tumor burden decreases as determined by CAT scan.

[3] = test system: with muscular dystrophy; test: Working Example V: patient with muscular dystrophy; settings: combination: deprenyl 10 mg/day plus isosorbide dinitrate (ISDN) 10 mg/day
Experimental: A person with muscular dystrophy is given deprenyl 10 mg/day plus isosorbide dinitrate (ISDN) 10 mg/day and weakness improves.

[4] = test system: person with rhematoid arthritis; test: Working Example VII: patient with rheumatoid arthritis; settings: combination: deprenyl 10 mg plus ascorbate 1 gm plus ISDN 5 mg PO TID or plus cysteine or NaHS (final concentration in blood 10 μM-1 mM)
Experimental: A person with rhematoid arthritis is administered deprenyl 10 mg plus ascorbate 1 gm plus ISDN 5 mg PO TID or plus cysteine or NaHS (final concentration in blood of 10 μM-1 mM). Progression of the disease slows.

[5] = test system: person with central core disease, malignant hyperthermia (MH); test: Working Example VIII: patient with central core disease and malignant hyperthermia; settings: combination: deprenyl 10 mg and ISDN 5 mg po tid
Experimental: A person with central core disease undergoes operation for pancreatic cancer and course complicated by malignant hyperthermia (MH). The patient is administered deprenyl 10 mg and ISDN 5 mg po tid with acute relief of MH and improvement in muscle function over time.

[6] = test system: person with glioblastoma; test: Working Example XI: patient with glioblastoma; settings: oral capsule: 6 mg auranofin and 50 mg isosorbide dinitrate, or 6 mg auranofin and 150 mg/m^2 BCNU, or 2.5 mg auranofin and 2 gm L-BSO every 6 hours
Experimental: A person with glioblastoma is given orally a capsule containing 6 mg auranofin and 50 mg isosorbide dinitrate or 6 mg auranofin and 150 mg/m^2 BCNU or 2.5 mg auranofin and 2 gm L-BSO given every 6 hours. Regression in the cancer occurs.

[7] = test system: person with septic shock; test: Working Example IX: patient with septic shock; settings: combination: gene therapy for TrxIP and 15 mg/kg intravenous L-NMMA (2 mg/kg IV TID)
Experimental: A person with septic shock is given gene therapy for TrxIP and 15 mg/kg intravenous L-NMMA (2 mg/kg IV TID).

[8] = test system: person with recurrent restenosis; test: Working Example II: patient with recurrent restenosis given arsenic trioxide plus nitrate; settings: combination: 0.15 mg/kg/day IV arsenic trioxide and either 60 mg isosorbide mononitrate per day or nitroglycerin patch 1-2 inches up to 4 times a day; after one month
Experimental: A person with recurrent restenosis is give 0.15 mg/kg/day IV arsenic trioxide and either 60 mg isosorbide mononitrate per day or nitroglycerin patch of 1-2 inches up to 4 times a day.

[9] = test system: person with Parkinson's disease; test: Working Example III: patient with Parkinson's disease; settings: combination: orally 300 mg N-acetylcysteine and 0.3 mg aptamer directed at Parkin by injection into spinal fluid, 30 days
Experimental: A person with Parkinson's disease is given orally 300 mg N-acetylcysteine and 0.3 mg dose by injection into spinal fluid (range may be 10 μg-2 mg of body weight) of aptamer directed at Parkin for 30 days. Movement improves.

[10] = test system: person with Alzheimer's; test: Working Example IV: patient with Alzheimer's; settings: combination: NAC 300 mg/day, ascorbate 1 gm/day and minocycline 100 mg TID
Experimental: A person with Alzheimer's is then started on combination of NAC (300 mg/day), ascorbate 1 gm/day and minocycline 100 mg TID and memory improves.

[11] = test system: 65 year with Alzheimers; test: Working Example VI: patient with Alzheimers; settings: combination: deprenyl 15 mg and S-nitrosoglutathione 10 mg po TID
Experimental: A 65 year with Alzheimers is administered deprenyl 15 mg and S-nitrosoglutathione 10 mg po TID. Blood pressure is unaltered but memory improves.

`O=C1O[C@H]([C@@H](O)CO)C([O-])=C1O.[Na+]` [sodium ascorbate] was tested, and the cancer regression [1] was “regresses”.
`O=[N+]([O-])O[C@H]1CO[C@H]2[C@@H]1OC[C@H]2O[N+](=O)[O-]` [isosorbide dinitrate] was tested, and the “Tumor burden as determined by CAT scan” value [2] was “decreases”, the weakness [3] was “improves” and the “Progression of the disease” value [4] was “slows”. For the same compound, the “muscle function over time” value [5] was “improvement”, the “relief of MH (malignant hyperthermia)” value [5] was “acute relief” and the “Regression in the cancer” value [6] was “Regression”.
`CC(=O)O.CNC(=N)NCCC[C@H](N)C(=O)O` [L-NMMA, Ng-monomethyl-L-arginine, monoacetate salt] was tested, and the Blood pressure [7] was “increases and stabilizes”.
With `O=[N+]([O-])O[C@@H]1CO[C@H]2[C@@H]1OC[C@@H]2O` [isosorbide mononitrate] the “disease (restenosis)” value [8] was “abates”, the “incidence of thrombotic complication” value [8] was “disappears” and the restenosis recurrence [8] was “does not reoccur”.
`CC(=O)N[C@@H](CS)C(=O)O` [N-acetylcysteine] was tested, and the Movement [9] was “improves” and the memory [10] was “improves”.
`C#CCN(C)[C@H](C)Cc1ccccc1` [deprenyl] was tested, and the weakness [3] was “improves”, the Blood pressure [11] was “unaltered” and the memory [11] was “improves”. For the same compound, the “Progression of the disease” value [4] was “slows”, the “muscle function over time” value [5] was “improvement” and the “relief of MH (malignant hyperthermia)” value [5] was “acute relief”.
`CC(=O)OC[C@H]1O[C@@H]([S-])[C@H](OC(C)=O)[C@@H](OC(C)=O)[C@@H]1OC(C)=O.CCP(CC)CC.[Au+]` [auranofin] was tested, and the “Tumor burden as determined by CAT scan” value [2] was “decreases” and the “Regression in the cancer” value [6] was “Regression”.
With `N[C@@H](CCC(=O)N[C@@H](CSN=O)C(=O)NCC(=O)O)C(=O)O` [S-nitrosoglutathione] the memory [11] was “improves”.
`O=NN(CCCl)C(=O)NCCCl` [BCNU, carmustine] was tested, and the “Regression in the cancer” value [6] was “Regression”.
In the case of arsenic trioxide, the “disease (restenosis)” value [8] is reported as “abates”, the “incidence of thrombotic complication” value [8] is reported as “disappears” and the restenosis recurrence [8] is reported as “does not reoccur”.
With `O=[N+]([O-])OCC(CO[N+](=O)[O-])O[N+](=O)[O-]` [nitroglycerin] the “disease (restenosis)” value [8] was “abates”, the “incidence of thrombotic complication” value [8] was “disappears” and the restenosis recurrence [8] was “does not reoccur”.
For `CCCCS(=N)(=O)CCC(N)C(=O)O` [L-BSO, L-buthionine-SR-sulfoximine], the “Regression in the cancer” value [6] was “Regression”.
In the case of `[Na+].[SH-]` [NaHS], the “Progression of the disease” value [4] is reported as “slows”.
`N[C@@H](CS)C(=O)O` [cysteine] was tested, and the “Progression of the disease” value [4] was “slows”.
